Source: patent US6447768B1, “Methods of gene therapy with a DNA sequence encoding NOS” (priority 1998, dated 2002)

Tested on: Human foreskin microvascular endothelial cells (MVEC)
Assay: Angiogenesis assay: capillary-like tube formation of MVEC in fibrin matrix
Format: cell-based
Conditions: for formation of capillary-like structures in fibrin matrices: uninfected MVEC, in combination with TNF-α
Protocol: Human foreskin microvascular endothelial cells (MVEC) were grown to confluency in M199 medium supplemented with 10% human serum (HS), 10% new-born calf serum (NBCS), penicillin and streptomycin and infected with 3.10_ pfu/ml Ad.IG.CMV.eNOS for 1 hour in M199 +2% NBCS. Medium was refreshed and cells were incubated overnight in M199+10% HS+10% NBCS.
Angiogenesis was analysed as described in Koolwijk et al. J. Cell Biol. 132 p1177-1188 (1996). Briefly, highly confluent MVEC were detached, seeded in a 1.25:1 split ratio on human fibrin matrices as cultures consisting either of uninfected cells, 100% infected cells or mixed cultures consisting of 10% infected/90% uninfected cells and cultured in M199 medium supplemented with 10% human serum (HS), 10% new-born calf serum (NBCS), penicillin and streptomycin.
Invading cells and the formation of tubular structures of endothelial cells in the three-dimensional fibrin matrix were analysed by phase contrast microscopy. After 7 days the total length of the tube-like structure of six randomly chosen microscopic fields per well (7.3 mm^2/field=43.8% of the total well) was measured using a Nikon FXA microscope equipped with a monochrome CCD camera (MX5) connected to a computer with Optimas image analysis software, and expressed as total tube length/cm^2.
For the angiogenesis experiments incubations are performed with cultures of uninfected cells, 10% infected MVEC and of 100% infected MVEC.
All incubations have been performed in the presence of 1 ng/ml TNF-α. Specific conditions tested in the presence and absence of virus were control, +bFGF: 5 ng/ml, +VEGF: 25 ng/ml, +bFGF+L-NAME: 5 ng/ml, 100 iM

| Compound | effect on tube formation (100 μM, bFGF+TNF-α stimulated cultures, with and without NOS infected cells) | formation of capillary-like structures in fibrin matrices |
| --- | --- | --- |
| COC(=O)[C@@H](N)CCCNC(=N)N[N+](=O)[O-] [L-NAME] | small reduction of tube formation | – |
| VEGF | – | formed capillary-like structures |
| bFGF: basic Fibroblast Growth Factor | – | formed capillary-like structures |
